The values below come from patent US12258360B2, “Compositions and methods for treatment of anticancer-drug resistant cancers” (THE GEORGE WASHINGTON UNIVERSITY, priority 2020, dated 2025).

The test system of series [1] is IGROV1 CR cells. Nature of the series: SRB cell viability, synergy with cisplatin (combination index). In kind it is cell-based, human. Here is the method:
Given that And-1 phosphorylation was positively correlated with cisplatin resistance in OC according the Examples above, it was next determined whether And-1 phosphorylation contributes to cell survival in response to cisplatin. The cell viability to cisplatin in IGROV1, OV90 and mice ID80 cells overexpressed with FLAG-And-1-WT, FLAG-And-1-T826A and phosphomimetic FLAG-And-1-T826E was examined. In brief, cells were seeded in 96-well plate at a density of 3,000-5,000 cells per well and treated with indicated reagents for different concentration. Three days after treatment, the cell viability was measured by Sulforhodamine B (SRB) assay. The IC50 values and CI index were further determined by compusyn software. Every experiment was done in triplicate and repeated three times. […] To confirm And-1 was the primary target of ATR to promote platinum-resistance, the sensitivity of IGROV1 cells to cisplatin was examined using genetic analyses.
To determine whether And-1 inhibitors can overcome cisplatin resistance in OC cells, the synergy of And-1 inhibitors and cisplatin in IGROV1 CR cells was examined.

The target of another series is T1, And-1 polymerization (Homo sapiens, UniProt O75717).
T1 construct: expressed in transfected cells; host or cells: U2OS
T1 sequence (O75717 1-1129): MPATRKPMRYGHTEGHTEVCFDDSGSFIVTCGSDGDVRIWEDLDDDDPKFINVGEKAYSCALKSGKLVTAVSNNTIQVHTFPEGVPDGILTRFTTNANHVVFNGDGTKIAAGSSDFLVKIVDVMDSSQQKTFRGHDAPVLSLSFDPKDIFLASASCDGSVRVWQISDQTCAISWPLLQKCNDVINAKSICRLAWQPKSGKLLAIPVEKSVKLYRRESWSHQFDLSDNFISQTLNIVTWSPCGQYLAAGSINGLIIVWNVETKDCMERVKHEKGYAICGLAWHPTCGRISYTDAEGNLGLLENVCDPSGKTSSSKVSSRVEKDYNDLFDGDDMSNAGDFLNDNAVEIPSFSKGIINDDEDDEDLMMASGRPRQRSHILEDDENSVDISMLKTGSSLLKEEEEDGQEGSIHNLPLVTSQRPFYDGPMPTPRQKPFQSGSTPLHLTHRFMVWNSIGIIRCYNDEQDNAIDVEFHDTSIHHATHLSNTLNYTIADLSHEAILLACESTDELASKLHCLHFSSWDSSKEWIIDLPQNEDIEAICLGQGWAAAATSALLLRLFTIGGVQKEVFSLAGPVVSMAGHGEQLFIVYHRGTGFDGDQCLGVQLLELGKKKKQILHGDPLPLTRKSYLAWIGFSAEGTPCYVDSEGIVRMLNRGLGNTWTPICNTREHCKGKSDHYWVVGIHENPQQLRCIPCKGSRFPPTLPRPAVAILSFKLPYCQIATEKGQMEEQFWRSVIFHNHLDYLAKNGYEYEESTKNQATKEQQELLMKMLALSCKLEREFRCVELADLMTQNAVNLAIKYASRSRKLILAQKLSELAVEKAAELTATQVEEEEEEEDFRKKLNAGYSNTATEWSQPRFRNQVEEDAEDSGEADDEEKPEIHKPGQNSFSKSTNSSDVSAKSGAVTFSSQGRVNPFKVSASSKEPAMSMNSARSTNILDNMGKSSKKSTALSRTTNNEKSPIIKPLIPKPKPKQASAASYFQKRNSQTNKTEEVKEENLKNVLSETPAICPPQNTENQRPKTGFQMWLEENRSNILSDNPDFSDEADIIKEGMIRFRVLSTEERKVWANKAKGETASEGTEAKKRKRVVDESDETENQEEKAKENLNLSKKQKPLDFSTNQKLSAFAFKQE
Kind of series: FLAG-And-1 / HA-And-1 co-immunoprecipitation in U2OS cells. The format is cell-based. The text has this:
Human And-1 exists as a homotrimer mediated by the SepB domain. To determine whether the interaction of CH3 with the WD40 domain can disrupt And-1 polymerization, resulting in exposure of CUL4B binding site on And-1 to CUL4B, both FLAG-And-1 and HA-And-1 were transfected into U2OS cells and the protein-protein interaction was examined in the presence of CH3.

In another series the test system is MCF7 xenograft. In kind it is in vivo, mice. The procedure:
(§1) To evaluate the potency of And-1 inhibitors in vivo, IGROV1 or MCF7 cells were subcutaneously implanted into nude mice to form ovarian or breast tumors, respectively. In brief, 5-6 week-old female BALB/c athymic nude mice (CByJ.Cg-Foxn1nu/J, weighting 20-25 grams) were inoculated subcutaneously by injecting the OC cells, cisplatin resistant OC cells or breast cancer cells suspended in 100 μl ice-cold Matrigel/PBS (1:1, V:V; 5×10^6/mouse) into the dorsal flank of each mouse. When the average tumor volume reached 100-150 mm^3, the mice were randomized into subsequent experiment groups. For tumors treated with CH3 only, CH3 was given at 0 mg/kg, 20 mg/kg and 40 mg/kg via intraperitoneal injection twice a week for three weeks. […] The relative tumor volumes were calculated using the formula: a×(b^2)/2, for which a and b represented the longest and shortest diameters, respectively. During the drug treatment, the tumor volume and body weight were measured. Tumor samples were collected 4 days after final administration of the drug.

The next series concerns IGROV1 xenograft. In kind it is in vivo, mice. Here is the method:
as §1

Series [2] concerns IGROV1 CR cells. Nature of the series: clonogenic assay, combination with cisplatin. The format is cell-based, human.
Procedure: Clonogenic survival assays were also performed. In brief, cells were seeded in 6-well dishes at a density of 500 cells per dish then treated with the cisplatin at the indicated concentrations (See FIGS. 23 and 24). Cells were then kept in the incubator for 10-14 days to allow colony formation. Colonies were visualized by crystal violet staining. Colonies with >50 cells were counted.
For series [3], the target named is T2, And-1 (Homo sapiens, UniProt O75717).
T2 sequence (O75717 1-1129): T1 sequence (O75717 1-1129)
Nature of the series: immunoprecipitation of And-1 and anti-ubiquitin immunoblot in IGROV1 cells. In kind it is cell-based. More on the design: endogenous in cells; host or cells: IGROV1 CR. The procedure: IGROV1 cells were treated with CH3 in the absence and presence of the 26S proteasome inhibitor MG132 (Benzyl N-[(2S)-4-methyl-1-[[(2S)-4-methyl-1-[[(2S)-4-methyl-1-oxopentan-2-yl]amino]-1-oxopentan-2-yl]amino]-1-oxopentan-2-yl]carbamate). […] Protein degradation through the proteasome requires conjugation of one or more ubiquitin molecules to the target. To address whether And-1 was modified by ubiquitin in IGROV1 cells treated with CH3, And-1 protein was immunoprecipitated and probed with anti-ubiquitin antibody.

Series [4] deals with T2, And-1. Kind of series: fluorescent boron sensor DAHMI staining of live IGROV1 cells. In kind it is cell-based. The arrangement: endogenous in cells; host or cells: IGROV1 CR. The text has this: Boron-containing compounds can be visualized using a fluorescent boron sensor DAHMI. To determine the binding specificity of CH3 to And-1, the distribution of CH3 in live cells was examined using DAHMI.

Turning to `OB1OCc2cc(/C=C/c3ccc(Cl)c(Cl)c3)ccc21` [CH3], the “synergy with cisplatin to inhibit cell proliferation (combination index)” value in the series on IGROV1 CR cells [1] is “significant synergy”. For the same compound, on And-1 polymerization, the “interaction between HA-And-1 and FLAG-And-1” value is on record as “significantly decreased”. Besides, the “And-1 expression in tumor (IHC)” value in the series on MCF7 xenograft (MCF7 xenograft) and with IGROV1 xenograft (IGROV1 xenograft) was “inhibited And-1 expression” throughout. Also, the “apoptosis in tumor (cleaved caspase-3 IHC)” value in the series with MCF7 xenograft (MCF7 xenograft) and with IGROV1 xenograft (IGROV1 xenograft) was “induced apoptosis in tumor” each time. For the same compound, the tumor growth result in the series with MCF7 xenograft (MCF7 xenograft, 20 or 40 mg/kg intraperitoneally, three weeks) is reported as “significantly reduced tumor growth”; in the series on IGROV1 xenograft (IGROV1 xenograft, 20 or 40 mg/kg intraperitoneally, three weeks) it was “significantly reduced tumor growth”. Moreover, the “systemic toxicity (body weight, H&E staining of heart, liver, kidney and lung)” value in the series with MCF7 xenograft (mouse, in vivo) is “systemic toxicity or obvious side effects were not observed”; in the series with IGROV1 xenograft (mouse, in vivo), “systemic toxicity or obvious side effects were not observed”. Besides, the “synergy with cisplatin on clonogenic capacity” value with IGROV1 CR cells [2] is “synergy with cisplatin to reduce clonogenic capacity”. The “ubiquitinated And-1 bands” value at And-1 [3] is on record as “increased”. For the same compound, at And-1 [4], the “distribution of compound in live cells (DAHMI)” value is reported as “detected in nuclei”.
